# Laboratory results: US20220251039A1, “Diaryl-B-Lactam Compound and Preparation Method and Pharmaceutical Use Thereof” (Fudan University, priority 2016, published 2022)
# “Also recorded” adds a separate entry of the source.
# Experiments:
# SKOV3 = test: MTT antiproliferative assay, SKOV3; format: cell-based; settings: Homo sapiens, SK-OV-3, SKOV3, 48 h, read-out: In vitro cell growth inhibition IC50, SKOV3
# Experimental: (§1) 5000 tumor cells per well were seeded into 96-well plate and allowed to adhere overnight. Cells were treated with various concentrations of tested compounds or DMSO (0.2%, as negative control) for 48 h. Then, the medium along with tested compounds or DMSO was discarded and […] per well MTT containing medium (0.5 mg/mL) was added. After incubation at 37° C. for 4 h, the MTT-containing medium was replaced by DMSO (150 μL per well) to dissolve the formazan crystals. Absorbance of the resulting solution was measured by microplate reader (Biotech ELx800) at 540 nm wavelength. Growth inhibition rates were calculated with the absorbance. Half maximal inhibitory concentration (IC50) of each compound was calculated using GraphPad Prism, version 6.0.
# Hela = test: MTT antiproliferative assay, Hela; format: cell-based; settings: Homo sapiens, 48 h, read-out: In vitro cell growth inhibition IC50, Hela
# Experimental: as §1
# tubulin [1] = test: Immunoblotting analysis of polymerized/depolymerized tubulin; format: cell-based, human; settings: Hela cells, 6 h
# Experimental: After being treated with diluent (0.2% DMSO), tested compound, CA-4 or PTX for 6 h, Hela cells were lysed with microtubulestabilizing buffer, containing 100 mM PIPES, pH 6.8, 1 mM MgCl2, 2 mM EGTA, 0.5% NP-40, 2 M glycerol, 5 μM PTX and protease inhibitors cocktail (Roche), and the lysate was centrifuged at 15,000 rpm for 15 min. Supernatant containing depolymerized tubulin was carefully collected, whereas pellet (polymerized tubulin) was further dissolved in SDS-lysis buffer (Beyotime, China). Equal amounts of supernatant and dissolved pellet were subjected to immunoblotting analysis as described above using a tubulin antibody (Proteintech).
# tubulin [2] = test: Immunofluorescent analysis of tubulin morphology; format: cell-based, human; settings: SKOV-3 cells, 24 h
# Experimental: After treatment with diluent (0.2% DMSO) or tested compounds at indicated concentrations for 24 h, SKOV-3 cells were fixed with methanol, permeabilized with 0.1% Triton X-100 in PBS and blocked by goat serum. Then the cells were incubated with a-tubulin antibody at 4° C. overnight, followed by incubation with Alexa 488 labeled secondary antibody (Jackson ImmunoResearch) at RT for 1 h. After being stained with DAPI, cells were examined and photographed with a Leica SP5 co-focal fluorescence microscope.
# MDA-MB-231 cells = test: Colony formation assay; format: cell-based, human; settings: 48 h treatment, 7-10 days growth
# Experimental: 1000 MDA-MB-231 cells per well were seeded into 6-well plate at a single cell density and were cultured at 37° C. for 48 h. After being treated with indicated concentrations of 69, 70 and 97, CA-4 as positive control, or diluent (0.2% DMSO) as negative control for 48 h, the agents containing medium was replaced by fresh medium to allow cell growth for additional 7-10 days. Then the cells were fixed with methanol and stained with gentian violet for 30 min. The number of colonies which consisted of more than 50 cells were counted. The results were indicated as mean values from three independent determinations.
# [3] = system: p-histone H3, cyclin B1 and BuBR1; test: Cell cycle associated proteins assay; format: cell-based, human; settings: HeLa cells, 24 h, Western blot and qPCR
# Experimental: A. HeLa cells were treated with 69, 70, 97 or DMSO for 24 h. After being harvested, the cells were lysed, and the concentrations of total protein were determined by BCA protein assay kit (Beyotime, China). […] The membrane was blocked with 5% BSA in TBST for 1.5 h, then incubated overnight with specific primary antibodies (Proteintech) at 4° C. After being washed three times by TBST, the membrane was incubated with specific secondary antibodies (Abnova, Taipei, China) at room temperature for 2 h. Finally, chemiluminescent reagents (Millipore) were employed to detect the protein bands.
# (§2) B. Quantitative PCR assay: HeLa cells were treated with 69, 70 or 97. The expression level of mRNA of target proteins was tested with qPCR kit (Takara).
# cellular apoptosis = test: Cell apoptosis analysis (Annexin V/PI); format: cell-based; settings: 48 h, Annexin-V/PI flow cytometry
# Experimental: Cell apoptosis was detected using FITC Annexin V Apoptosis Detection Kit (BD Biosciences) according to manufacturer's instructions. Briefly, cells were incubated with indicated concentrations of 69, 70 and 97, CA-4 as positive control or diluent (0.2% DMSO) as negative control for 48 h. Then the cells were harvested, washed twice with PBS, and re-suspended in binding buffer. After being stained with Annexin-V and PI for 15 min in the dark place, cells were subjected to flow cytometry (Cytomics FC 500 MPL, Beckman Coulter) analysis. The results were indicated as mean values from three independent determinations.
# [4] = system: Bax, p53 and cleaved-PARP; test: Expression level of apoptosis associated proteins; format: cell-based, human; settings: HeLa cells, Western blot and qPCR
# Experimental: A. Western blotting: After being treated with candidate compound, cells were harvested and lysed. Then, the lysate was isolated by ultracentrifuge and quantified by BCA assay according to the protocol. After being denatured, equivalent protein of each sample was separated by SDS-PAGE gel and wet-transferred onto […] nitrocellulose membrane. After being blocked by PBS containing 5% skim milk, the membrane was incubated with primary antibody at 4° C. overnight and secondary antibody at room temperature for 2 h and then visualized by enhanced chemiluminescence kit (Thermo Fisher, USA), sequentially.
# as §2
# KM mice = test: Acute toxicity assay; format: in vivo
# Experimental: KM mice were housed individually in a specific pathogen free facility. Groups of mice (n=10 per group, half male and half female) were injected intraperitoneally once with various dosages of 69 (95, 70, 50, 35, 25 mg/kg), 70 (500, 425, 350, 275, 200 mg/kg), 97 (275, 200, 150, 125 and 100 mg/kg) or vehicle (8.3% cremohorp EL and 8.3% alcohol in PBS) as negative control, respectively. 69, 70 and 97 was dissolved in cremeohore EL and alcohol mixture (1:1, v/v) and further diluted with PBS (1:5, v/v). The death of mice were monitored daily and recorded up to 14 days after injection.
# A2780 cells = test: Xenografts tumor growth assay in nude mice; format: in vivo, Balb/c nude mice; settings: A2780 xenograft
# Experimental: 6 weeks old female Balb/c nude mice were purchased from Shanghai Slac Laboratory Animal Co. Ltd. (Shanghai, China). 2*10^6 A2780 cells suspended in 0.2 mL PBS per mouse was injected subcutaneously into the nude mice. […] Administration of agents or vehicle, or agents and measurement of tumor volumes with a digital caliper was done once every 2 days. Tumor volumes were calculated as volume=shortest diameter (W)^2*longest diameter (L)*0.52. When the average tumor volumes of vehicle treated group reached 2000 mm^3 in diameter, the mice were sacrificed and the tumors were isolated and weighed. Visceral organs of the mice as well as solid tumors were further analyzed by H&E staining.
compound,measurement,setting,value
"COc1ccc([C@H]2C(=O)C(=O)N2c2cc(OC)c(OC)c(OC)c2)cc1OCc1ccccc1 [Compound 71, (S)-4-(3-(benzyloxy)-4-methoxyphenyl)-1-(3,4,5-trimethoxyphenyl)azetidine-2,3-dione]",IC50,SKOV3,> 10 µM
same,IC50,Hela,> 10 µM
"COc1ccc([C@H]2[C@H](C)C(=O)N2c2cc(OC)c(OC)c(OC)c2)cc1O [Compound 97, (3S,4R)-4-(3-hydroxy-4-methoxyphenyl)-3-methyl-1-(3,4,5-trimethoxyphenyl)azetidin-2-one]",polymerized tubulin (immunoblotting),tubulin [1],significantly inhibit tubulin aggregation; also recorded: dramatically reduction of polymerized tubulin
same,tubulin assembly (immunofluorescence),tubulin [2],significantly inhibit tubulin aggregation; also recorded: strongly inhibit tubulin assembly in cancer cells
same,colony formation,MDA-MB-231 cells,significantly inhibit the formation of colonies of cancer cells
same,"expression of p-histone H3, cyclin B1 and BuBR1",[3],"significantly promote the expression of phosphorylated histone H3, cyclin B1, and mitotic checkpoint protein BuBR1"
same,cellular apoptosis,cellular apoptosis,significantly promote apoptosis; also recorded: significantly induce cellular apoptosis
same,"expression of Bax, p53 and cleaved-PARP",[4],"significantly promote the expression of the proapoptotic protein Bax, the tumor suppressor gene p53, and the cleaved DNA repair enzyme; also recorded: significantly induce the expression of Bax, p53 and cleaved-PARP"
same,No. of dead mice 5-14 days,KM mice; 100 mg/kg i.p. once,0
same,No. of dead mice 1 day,KM mice; 100 mg/kg i.p. once,0
same,No. of dead mice 2 days,KM mice; 100 mg/kg i.p. once,0
same,No. of dead mice 3 days,KM mice; 100 mg/kg i.p. once,1
same,No. of dead mice 4 days,KM mice; 100 mg/kg i.p. once,0
same,No. of dead mice Total death,KM mice; 100 mg/kg i.p. once,1
same,Survival (%) on day 14,KM mice; 100 mg/kg i.p. once,90%
same,No. of dead mice 5-14 days,KM mice; 125 mg/kg i.p. once,0
same,No. of dead mice 1 day,KM mice; 125 mg/kg i.p. once,0
same,No. of dead mice 2 days,KM mice; 125 mg/kg i.p. once,2
same,No. of dead mice 3 days,KM mice; 125 mg/kg i.p. once,1
same,No. of dead mice 4 days,KM mice; 125 mg/kg i.p. once,0
same,No. of dead mice Total death,KM mice; 125 mg/kg i.p. once,3
same,Survival (%) on day 14,KM mice; 125 mg/kg i.p. once,70%
same,No. of dead mice 5-14 days,KM mice; 150 mg/kg i.p. once,0
same,No. of dead mice 1 day,KM mice; 150 mg/kg i.p. once,2
same,No. of dead mice 2 days,KM mice; 150 mg/kg i.p. once,4
same,No. of dead mice 3 days,KM mice; 150 mg/kg i.p. once,0
same,No. of dead mice 4 days,KM mice; 150 mg/kg i.p. once,0
same,No. of dead mice Total death,KM mice; 150 mg/kg i.p. once,6
same,Survival (%) on day 14,KM mice; 150 mg/kg i.p. once,40%
same,No. of dead mice 5-14 days,KM mice; 200 mg/kg i.p. once,0
same,No. of dead mice 1 day,KM mice; 200 mg/kg i.p. once,1
same,No. of dead mice 2 days,KM mice; 200 mg/kg i.p. once,4
same,No. of dead mice 3 days,KM mice; 200 mg/kg i.p. once,2
same,No. of dead mice 4 days,KM mice; 200 mg/kg i.p. once,0
same,No. of dead mice Total death,KM mice; 200 mg/kg i.p. once,7
same,Survival (%) on day 14,KM mice; 200 mg/kg i.p. once,30%
same,No. of dead mice 5-14 days,KM mice; 275 mg/kg i.p. once,0
same,No. of dead mice 1 day,KM mice; 275 mg/kg i.p. once,2
same,No. of dead mice 2 days,KM mice; 275 mg/kg i.p. once,4
same,No. of dead mice 3 days,KM mice; 275 mg/kg i.p. once,2
same,No. of dead mice 4 days,KM mice; 275 mg/kg i.p. once,1
same,No. of dead mice Total death,KM mice; 275 mg/kg i.p. once,9
same,Survival (%) on day 14,KM mice; 275 mg/kg i.p. once,10%
same,tumor growth in vivo,"A2780 cells; i.p. once every 2 days, 69 7.5 mg/kg, 70 12.5 mg/kg, 97 4 or 8 mg/kg",significantly inhibit tumor growth in vivo; also recorded: anti-tumor activities in vivo
same,"H&E staining of liver, kidney and spleen",A2780 cells; treated groups,"no abnormal areas are observed in tissue staining of liver, kidney and spleen; also recorded: no detectable abnormalities were observed in liver, kidney and spleen"
same,H&E staining of tumor sections (necrosis),A2780 cells; treated groups,cause tumor tissue to produce necrotic areas; also recorded: extensive areas of necrosis or cell death
